The target in one test is HLA-A*0201 (Homo sapiens, UniProt P04439, D140Y/D185E/D98H/E176V/E277Q/G131W/G231S/I119V/I121R/I166T/I218V/L300P/L318F/N151K/N90K/P208A/P217A/Q86G/Q94H/R138H/R169H/T345S). As to the kind of experiment: ED50 (M). The source says:
Table printed on a drawing sheet, Figure 27B
Head of the field: ED50 (M)

Test [1] deals with T cell lines specific for the native epitope (PRAME425-433). As to the kind of experiment: Cross reactivity of PRAME425-433 analogs: IFN-γ secretion from T cell line specific for native epitope. The test is classed as cell-based. To be noted: analog peptide at approximately 0.3 μM; normalized to native peptide. Here is the method:
At 7 days after the last boost, the mice were sacrificed and a suspension of splenocytes prepared at 5×10^6 […] cells/ml in complete HL-1 medium. Cells were incubated with different concentrations of peptide for 48 hours in flat-bottomed 96-well plates (200 ul/well) and for an additional 24 hours with rIL-2 at 10 U/ml added to the wells. The supernatant was harvested and the concentration of IFN-gamma assessed by standard methods such as ELISA. […] The observed affinities of the analogs are reported as % binding (compared to the positive control) and ED50s. Stability of binding as half time of dissociation. Cross reactivity with the native epitope was assessed by using the analog peptides to stimulate IFG-gamma secretion from a T cell lines specific for the native epitope, essentially as described in Example 6. The data shown in FIGS. 26-28 were generated by stimulating with analog peptide at approximately 0.3 μM. […] In some cases the reported values are the average of two determinations.

Where a SMILES comes first, the peptide text is derived from it. [ ]: non-standard residue; d: D form. Nva = CCC[C@H](N)C(=O)O

`CCC[C@H](NC(=O)CNC(=O)[C@@H](NC(=O)[C@H](CC(C)C)NC(=O)[C@H](Cc1c[nH]cn1)NC(=O)[C@H](CCC(N)=O)NC(=O)[C@H](CC(C)C)NC(=O)[C@H](CCC)NC(=O)[C@@H](N)CO)[C@@H](C)CC)C(=O)O` [50 | Prame 425-433 (L426(Nva),L433(Nva)), S(Nva)LQHLIG(Nva)] (H-S[Nva]LQHLIG[Nva]-OH; N-terminus and C-terminus assumed): the EC50 on HLA-A*0201 was 2940 nM.
On HLA-A*0201, `CCC[C@H](NC(=O)CNC(=O)[C@@H](NC(=O)[C@H](CC(C)C)NC(=O)[C@H](Cc1c[nH]cn1)NC(=O)[C@H](CCC(N)=O)NC(=O)[C@H](CC(C)C)NC(=O)[C@H](CCSC)NC(=O)[C@@H](N)CO)[C@@H](C)CC)C(=O)O` [56 | Prame 425-433 (L426M,L433(Nva))] (H-SMLQHLIG[Nva]-OH; N-terminus and C-terminus assumed) yielded an EC50 of 688 nM.
For the molecule “Lys P1 analog: PRAME425-433 analog with Lys for the Ser at the P1 position (KLLQHLIGL)”, the “IFN-γ elicited, of that of the native peptide” value in test [1] was determined as 40%.

For orientation: EC50 means the concentration needed to bring the measured effect to its halfway point. Low readings indicate a more potent agent, high ones a less potent agent.

These data come from patent US20060094661A1, “NY-ESO-1 peptide analogs” (priority 2004, published 2006).
